How the values were obtained:
[1] = system: ISC-enriched organoids; assay: Primary screen, 384-well 2.5-D organoid differentiation (ENR+CD, 6 days): basal lysozyme secretion (LYZ.NS); format: cell-based, murine; conditions: for Dose.FC.LYZ.NS: FC vs plate median; for SSMD.LYZ.NS: strictly standardized mean difference
From the text: (§1) High-throughput screening.

[2] = system: ISC-enriched organoids; assay: Primary screen, 384-well 2.5-D organoid differentiation (ENR+CD, 6 days): carbachol-induced lysozyme secretion (LYZ.S); format: cell-based, murine; conditions: for Dose.FC.LYZ.S: FC vs plate median; for Z.LYZ.S: standard z score; for SSMD.LYZ.S: strictly standardized mean difference
From the text: as §1

[3] = system: ISC-enriched organoids; assay: Primary screen, 384-well 2.5-D organoid differentiation (ENR+CD, 6 days, Target Selective Inhibitor Library, vs whole-plate median): ATP (CellTiter-Glo 3D, CTG); conditions: for Dose.FC.CTG: FC vs plate median; for SSMD.CTG: strictly standardized mean difference
[4] = Dose 0.08 uM, standard z score of FC
[5] = Dose 0.40 uM, standard z score of FC
[6] = Dose 2.00 uM, standard z score of FC
[7] = Dose 10.00 uM, standard z score of FC
[8] = Dose 0.08 uM, primary screen, standard z score
[9] = Dose 0.40 uM, primary screen, standard z score
[10] = Dose 2.00 uM, primary screen, standard z score
[11] = Dose 10.00 uM, primary screen, standard z score
[12] = primary screen, 1st of the 4 dose lines of the treatment (dose not given)
[13] = primary screen, 2nd of the 4 dose lines of the treatment (dose not given)
[14] = primary screen, 3rd of the 4 dose lines of the treatment (dose not given)
[15] = primary screen, 4th of the 4 dose lines of the treatment (dose not given)

`CC(C)(F)C[C@H](N[C@@H](c1ccc(-c2ccc(S(C)(=O)=O)cc2)cc1)C(F)(F)F)C(=O)NC1(C#N)CC1` [Odanacatib (MK-0822)] was tested, and the Dose.FC.LYZ.NS ([1]; Dose 0.08 uM, primary screen) was 0.086 log 2 fold change, the Z.LYZ.NS [1, 4] was 0.752 and the Dose.FC.LYZ.NS ([1]; Dose 0.40 uM, primary screen) was 0.162 log 2 fold change. For the same compound, the Z.LYZ.NS [1, 5] was 1.409, the Dose.FC.LYZ.NS ([1]; Dose 2.00 uM, primary screen) was 0.024 log 2 fold change and the Z.LYZ.NS [1, 6] was 0.212. For the same compound, the Dose.FC.LYZ.NS ([1]; Dose 10.00 uM, primary screen) was −0.035 log 2 fold change, the Z.LYZ.NS [1, 7] was −0.307 and the Dose.FC.LYZ.S ([2]; Dose 0.08 uM, primary screen) was 0.091 log 2 fold change. It also gave a Dose.FC.LYZ.S ([2]; Dose 0.40 uM, primary screen) of 0.170 log 2 fold change, a Dose.FC.LYZ.S ([2]; Dose 2.00 uM, primary screen) of 0.036 log 2 fold change and a Dose.FC.LYZ.S ([2]; Dose 10.00 uM, primary screen) of −0.074 log 2 fold change. It also gave a Dose.FC.CTG ([3]; Dose 0.08 uM, primary screen) of 0.119 log 2 fold change, a Z.CTG [3, 4] of 0.285 and a Dose.FC.CTG ([3]; Dose 0.40 uM, primary screen) of 0.208 log 2 fold change. The Z.CTG [3, 5] was 0.496, the Dose.FC.CTG ([3]; Dose 2.00 uM, primary screen) was −0.008 log 2 fold change and the Z.CTG [3, 6] was −0.020. The Dose.FC.CTG ([3]; Dose 10.00 uM, primary screen) was 0.006 log 2 fold change and the Z.CTG [3, 7] was 0.015.

`CC1C(=O)OC2C(O)C34C5CC(C(C)(C)C)C36C(OC(=O)C6O)OC4(C(=O)O5)C12O` (stereo not shown) [Ginkgolide B] was tested, and the Dose.FC.LYZ.NS ([1]; Dose 0.08 uM, ENR+CD, 6 days) was 0.041 log 2 fold change, the Z.LYZ.NS [1, 4] was 0.353 and the Dose.FC.LYZ.NS ([1]; Dose 0.40 uM, ENR+CD, 6 days) was 0.109 log 2 fold change. The Z.LYZ.NS [1, 5] was 0.950, the Dose.FC.LYZ.NS ([1]; Dose 2.00 uM, ENR+CD, 6 days) was 0.061 log 2 fold change and the Z.LYZ.NS [1, 6] was 0.528. The Dose.FC.LYZ.NS ([1]; Dose 10.00 uM, ENR+CD, 6 days) was −0.037 log 2 fold change, the Z.LYZ.NS [1, 7] was −0.326 and the Dose.FC.LYZ.S ([2]; Dose 0.08 uM, ENR+CD, 6 days) was 0.034 log 2 fold change. The Dose.FC.LYZ.S ([2]; Dose 0.40 uM, ENR+CD, 6 days) was 0.047 log 2 fold change, the Dose.FC.LYZ.S ([2]; Dose 2.00 uM, ENR+CD, 6 days) was 0.033 log 2 fold change and the Dose.FC.LYZ.S ([2]; Dose 10.00 uM, ENR+CD, 6 days) was −0.035 log 2 fold change. For the same compound, the Dose.FC.CTG ([3]; Dose 0.08 uM, ENR+CD, 6 days) was −0.076 log 2 fold change, the Z.CTG [3, 4] was −0.182 and the Dose.FC.CTG ([3]; Dose 0.40 uM, ENR+CD, 6 days) was 0.034 log 2 fold change. For the same compound, the Z.CTG [3, 5] was 0.081, the Dose.FC.CTG ([3]; Dose 2.00 uM, ENR+CD, 6 days) was −0.154 log 2 fold change and the Z.CTG [3, 6] was −0.369. The Dose.FC.CTG ([3]; Dose 10.00 uM, ENR+CD, 6 days) was 0.177 log 2 fold change and the Z.CTG [3, 7] was 0.422.

Compound `O=C(c1cn(Cc2cncn2Cc2ccc(Br)cc2)cc1-c1cccc2ccccc12)N1CCOCC1` [LB42708] has a Dose.FC.LYZ.NS ([1]; Dose 0.08 uM, primary screen) of −0.116 log 2 fold change, a Z.LYZ.NS [1, 8] of −1.010 and a Dose.FC.LYZ.NS ([1]; Dose 0.40 uM, primary screen) of −0.140 log 2 fold change. For the same compound, the Z.LYZ.NS [1, 9] was −1.221, the Dose.FC.LYZ.NS ([1]; Dose 2.00 uM, primary screen) was −0.176 log 2 fold change and the Z.LYZ.NS [1, 10] was −1.531. It also gave a Dose.FC.LYZ.NS ([1]; Dose 10.00 uM, primary screen) of −0.182 log 2 fold change, a Z.LYZ.NS [1, 11] of −1.587 and an SSMD.LYZ.NS [1, 12] of −1.118. The SSMD.LYZ.NS [1, 13] was −1.157, the SSMD.LYZ.NS [1, 14] was −1.034 and the SSMD.LYZ.NS [1, 15] was −0.939. The Dose.FC.LYZ.S ([2]; Dose 0.08 uM, primary screen) was −0.089 log 2 fold change, the Dose.FC.LYZ.S ([2]; Dose 0.40 uM, primary screen) was −0.144 log 2 fold change and the Dose.FC.LYZ.S ([2]; Dose 2.00 uM, primary screen) was −0.238 log 2 fold change. The Dose.FC.LYZ.S ([2]; Dose 10.00 uM, primary screen) was −0.233 log 2 fold change, the Z.LYZ.S [2, 12] was −0.576 and the Z.LYZ.S [2, 13] was −0.934. It also gave a Z.LYZ.S [2, 14] of −1.539, a Z.LYZ.S [2, 15] of −1.509 and an SSMD.LYZ.S [2, 12] of −0.519. The SSMD.LYZ.S [2, 13] was −0.630, the SSMD.LYZ.S [2, 14] was −0.965 and the SSMD.LYZ.S [2, 15] was −0.864. It also gave a Dose.FC.CTG ([3]; Dose 0.08 uM, primary screen) of −0.072 log 2 fold change, a Z.CTG [3, 8] of −0.172 and a Dose.FC.CTG ([3]; Dose 0.40 uM, primary screen) of −0.342 log 2 fold change. The Z.CTG [3, 9] was −0.817, the Dose.FC.CTG ([3]; Dose 2.00 uM, primary screen) was −0.116 log 2 fold change and the Z.CTG [3, 10] was −0.277. It also gave a Dose.FC.CTG ([3]; Dose 10.00 uM, primary screen) of −0.706 log 2 fold change, a Z.CTG [3, 11] of −1.685 and an SSMD.CTG [3, 12] of −0.254. It also gave an SSMD.CTG [3, 13] of −0.531, an SSMD.CTG [3, 14] of −0.186 and an SSMD.CTG [3, 15] of −1.059.
